Measured values as given in patent US6288103A, “Indole derivatives as MCP-1 receptor antagonists” (Zeneca Limited, priority 1997, dated 2001).
pIC50: −log10 of the molar value.

Target: T1, hMCP-1 receptor, MCP-1 receptor B (CCR2B) (Homo sapiens, UniProt P41597)
T1 construct: expressed in transfected cells; host or cells: CHO-K1 (clone 7, CHO-CCR2B), membrane fragments
T1 sequence (P41597 1-360 isoform P41597-2): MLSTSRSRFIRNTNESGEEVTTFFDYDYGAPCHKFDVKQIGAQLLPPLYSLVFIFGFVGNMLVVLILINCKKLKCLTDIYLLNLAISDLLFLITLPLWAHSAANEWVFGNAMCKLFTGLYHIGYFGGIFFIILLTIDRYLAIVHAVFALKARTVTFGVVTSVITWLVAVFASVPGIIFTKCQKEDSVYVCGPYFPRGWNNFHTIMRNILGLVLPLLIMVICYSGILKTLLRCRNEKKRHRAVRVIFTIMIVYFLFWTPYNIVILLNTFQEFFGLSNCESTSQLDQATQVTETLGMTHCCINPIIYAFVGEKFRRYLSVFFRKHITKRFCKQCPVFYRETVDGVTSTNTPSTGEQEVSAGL
Assay: hMCP-1 receptor-binding assay
Details: competition with 100 pM 125I-labelled MCP-1, CHO-CCR2B cell membranes, concentration range 0.1-200 μM
Source text: a) hMCP-1 Receptor-binding Assay
The MCP-1 receptor B (CCR2B) cDNA was cloned by PCR from THP-1 cell RNA using suitable oligonucleotide primers based on the published MCP-1 receptor sequences (Charo et al., 1994, Proc. Natl. Acad. Sci. USA, 91, 2752). The resulting PCR products were cloned into vector PCR-II™ (InVitrogen, San Diego, Calif.). Error free CCR2B cDNA was subcloned as a Hind III-Not I fragment into the eukaryotic expression vector pCDNA3 (In Vitrogen) to generate pCDNA3/CC-CKR2A and pCDNA3/CCR2B respectively.
Linearised pCDNA3/CCR2B DNA was transfected into CHO-K1 cells by calcium phosphate precipitation (Wigler et al., 1979, Cell, 16, 777). Transfected cells were selected by the addition of Geneticin Sulphate (G418, Gibco BRL) at 1 mg/ml, 24 hours after the cells had been transfected. Preparation of RNA and Northern blotting were carried out as described previously (Needham et al., 1995, Prot. Express. Purific., 6, 134). CHO-K1 clone 7 (CHO-CCR2B) was identified as the highest MCP-1 receptor B expressor.
CHO-CCR2B cells were grown in DMEM supplemented with 10% foetal calf serum, 2 mM glutamine, 1× Non-Essential Amino Acids, 1× Hypoxanthine and Thymidine Supplement and Penicillin-Streptomycin (at 50 μg streptomycin/mi, Gibco BRL). […]

## O=C(O)c1cc2ccccc2n1S(=O)(=O)c1ccc(Cl)c(Cl)c1 [Example 2.01, N-(3,4-Dichlorophenylsulphonyl)indole-2-carboxylic acid]
  pIC50: 5.00
